Tests used:
SMNA7 cells = test: Morphology (neurite-like structure) of SMNA7 cells; format: cell-based; conditions: after treating with b-isox
Excerpt: We investigate whether baicalein can act as a pharmacological chaperone to refold misfolded SMNA7 into a functional prion-like domain, as shown in FIG. 8 (FIG. 10a). […] PFN1 is a known SMN interactor in the cytosol. We further examined whether baicalein attenuated the degradation of the SMNA7 protein. […] We found baicalein increased the length of axons from NSC34 cells expressing SMNA7 by approximately 2-fold (FIG. 10g).

SMN = target: T1, SMN (Homo sapiens, UniProt Q16637); test: B-isox precipitation, SMN; format: binding; conditions: 100 μM b-isox, lysates of mes23.5 and 293T cells, 4° C.
T1 construct: endogenous in cells; host or cells: 293T (also mes23.5)
Protocol: (§1) B-isox Precipitation: The 293T cells were harvested and lysed with RIPA buffer. The protein concentration was adjusted to 1 to 10 mg/mL, and 10 mM biotinylated isoxazole was added to the cell lysate to a final concentration of 100 to 200 µM. The mixtures were then incubated at 4° C. for 60 min, centrifuged at 15000 rpm for 15 min at 4° C., and the supernatant was discarded. The entire reaction volumes were subjected to SDS-PAGE and western blotting.
Biotinylated isoxazole (b-isox), a recently identified specific chemical probe, specifically recognizes the cross-β prion-like polymer and sequentially precipitates with proteins with low complexity, prion-like domains, or phase-separated domains, such as TDP-43 and Fus. We initially incubated 100 μM b-isox with cell lysates of mes23.5 and 293T cells at 4° C. to chemically precipitate whole prion-like proteins and then analyzed the efficiency of SMN binding by western blotting to assess the prion-like or phase transition potential of SMN (FIGS. 8a and b). […] H3K4me3 proteins were used as control for insoluble loading (FIG. 8c). Indeed, insoluble SMN has been reported to be important for the assembly of Cajal bodies (CBs) via the SUMO-like interacting motif (SIM-like). Thus, sumoylation is one of the cellular regulatory mechanisms that trigger nuclear SMN to form the separated phase though cross-β polymerization.

PFN1 = target: T2, PFN1 (Homo sapiens, UniProt P07737); test: B-isox precipitation, PFN1; format: binding; conditions: 293T cell fractions
T2 construct: endogenous in cells; host or cells: 293T
Protocol: as §1
Because visible SMN granules were not observed in the cytosol under normal conditions, we deduced that SMN polymers may participate in heteromeric interactions with other prion-like proteins to fulfill biological functions in the cytosol. […] Mutations in PFN1 cause co-aggregation with TDP-43 in patients with familial amyotrophic lateral sclerosis (ALS), supporting the hypothesis that PFN1 is a prion-like protein. […] Thus, we postulated that these interactions were mediated by prion-like nature. Furthermore, we incubated full-length SMN or a panel of exon deletion constructs of SMN with b-isox and then performed a western blot analysis to identify the b-isox binding site in SMN. […] The domains encoded by exons 2b and 6 have consistently been reported to self-interact. […] Based on the results of the solubility examination, variants containing exons 6-7 were not detected in the insoluble fraction, although those variants formed visible granules. […]

Rb = target: T3, Rb (Homo sapiens, UniProt P06400); test: B-isox precipitation, Rb; format: binding; conditions: 100 μM b-isox, lysates of 293T cells, 4° C.
T3 construct: endogenous in cells; host or cells: 293T
T3 sequence (P06400 1-928): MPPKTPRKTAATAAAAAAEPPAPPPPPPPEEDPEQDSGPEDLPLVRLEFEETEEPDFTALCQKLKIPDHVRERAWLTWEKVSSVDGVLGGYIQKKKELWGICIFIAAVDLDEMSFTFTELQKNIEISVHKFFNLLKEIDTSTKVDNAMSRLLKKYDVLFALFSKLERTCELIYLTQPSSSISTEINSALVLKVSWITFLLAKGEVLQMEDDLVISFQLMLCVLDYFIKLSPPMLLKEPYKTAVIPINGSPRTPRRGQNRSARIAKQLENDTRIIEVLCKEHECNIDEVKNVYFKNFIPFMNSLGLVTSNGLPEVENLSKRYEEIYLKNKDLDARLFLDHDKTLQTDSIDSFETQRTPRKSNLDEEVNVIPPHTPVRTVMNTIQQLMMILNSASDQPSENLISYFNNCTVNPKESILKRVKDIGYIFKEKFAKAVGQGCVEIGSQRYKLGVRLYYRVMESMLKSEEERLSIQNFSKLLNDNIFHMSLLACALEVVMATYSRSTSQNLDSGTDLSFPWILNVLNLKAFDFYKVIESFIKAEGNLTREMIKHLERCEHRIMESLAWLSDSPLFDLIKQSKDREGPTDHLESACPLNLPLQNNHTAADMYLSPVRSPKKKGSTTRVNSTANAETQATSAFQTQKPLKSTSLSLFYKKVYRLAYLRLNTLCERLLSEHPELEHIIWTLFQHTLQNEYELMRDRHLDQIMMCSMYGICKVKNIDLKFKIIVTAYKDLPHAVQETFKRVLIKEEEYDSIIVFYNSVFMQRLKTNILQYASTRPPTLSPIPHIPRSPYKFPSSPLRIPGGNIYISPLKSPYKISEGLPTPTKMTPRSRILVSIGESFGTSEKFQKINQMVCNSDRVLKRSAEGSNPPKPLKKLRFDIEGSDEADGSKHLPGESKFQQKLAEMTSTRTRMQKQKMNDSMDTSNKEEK
Protocol: as §1
We incubated 100 μM b-isox with cell lysates of 293T cells at 4° C. to chemically precipitate whole prion-like proteins and then analyzed the efficiency of Rb binding by western blotting to assess the prion-like or phase transition potential of Rb (FIG. 22). […] The N-terminus of Rb (aa. 10-56) stabilizes prion-like conformation (FIG. 22c). Deletion of Rb N-terminus leads to protein degradation (FIG. 22d).

[1] = target: T4, TDP-43 and Lam B recombinant proteins (Homo sapiens, UniProt Q13148); test: In vitro assembly of TDP-43 and Lam B filaments (electron microscopy); format: biochemical; conditions: 3 μM proteins, b-isox 100 μM, 2 hr, RT
T4 construct: Purified full-length TDP-43 and Lam B recombinant proteins (equivalent 3 μM monomer)
Protocol: To investigate the de novo mechanism of heterotypic interactions of the cross-β, we incubated TDP-43 and Lam B recombinant proteins with or without b-isox for 2 hr in vitro. […] In cells, the percentage of cross-β conformers of LC protein was approximately 10˜70% by the b-isox binding analysis, e.g. 21.2% cross-β conformers of TDP-43 in Mes23.5 dopaminergic neurons (FIG. 13j). We assume that inside the cells, most of the intrinsically disordered LC domains are protected through structure folding or binding with other proteins that limits the cross-β-nucleating reactions.

T1 sequence (Q16637 2-294): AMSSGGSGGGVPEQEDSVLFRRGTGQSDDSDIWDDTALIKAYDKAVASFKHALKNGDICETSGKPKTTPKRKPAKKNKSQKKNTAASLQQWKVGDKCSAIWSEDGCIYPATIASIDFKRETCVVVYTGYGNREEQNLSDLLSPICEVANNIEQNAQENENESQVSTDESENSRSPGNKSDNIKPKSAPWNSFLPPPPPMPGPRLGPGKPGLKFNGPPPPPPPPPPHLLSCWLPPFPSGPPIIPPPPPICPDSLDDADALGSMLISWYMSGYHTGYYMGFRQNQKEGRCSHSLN
T4 sequence (Q13148 whole entry): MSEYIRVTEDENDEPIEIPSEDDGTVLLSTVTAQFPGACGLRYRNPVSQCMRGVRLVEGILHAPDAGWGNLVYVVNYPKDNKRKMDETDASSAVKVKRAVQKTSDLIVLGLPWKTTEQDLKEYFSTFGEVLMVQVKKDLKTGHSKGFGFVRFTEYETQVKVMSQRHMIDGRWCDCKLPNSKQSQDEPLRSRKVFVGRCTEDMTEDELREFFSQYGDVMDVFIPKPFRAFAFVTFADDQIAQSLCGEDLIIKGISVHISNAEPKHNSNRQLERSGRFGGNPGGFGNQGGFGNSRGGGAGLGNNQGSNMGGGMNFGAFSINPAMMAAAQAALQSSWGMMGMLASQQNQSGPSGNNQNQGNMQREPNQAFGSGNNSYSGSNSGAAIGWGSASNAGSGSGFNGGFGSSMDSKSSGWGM
T2 sequence (P07737 whole entry): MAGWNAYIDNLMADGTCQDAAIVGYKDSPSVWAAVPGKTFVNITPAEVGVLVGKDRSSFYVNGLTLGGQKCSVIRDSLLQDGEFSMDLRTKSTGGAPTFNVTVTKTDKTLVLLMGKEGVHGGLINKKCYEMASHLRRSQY

In the case of `O=C1N[C@H]2[C@H](CS[C@H]2CCCCC(=O)OCCCCCCNC(=O)c2cc(-c3cccs3)on2)N1` [b-isox, biotinylated isoxazole], the “morphology of SMNA7 cells” value (SMNA7 cells) is reported as “became round and detached”, the “precipitation of SMN by b-isox” value (SMN) is reported as “precipitation of both SMN and sumoylated SMN” and the “precipitation of PFN1 by b-isox” value (PFN1) is reported as “precipitated”. For the same compound, the “precipitation of Rb by b-isox” value (Rb) was “precipitation of Rb” and the “short cylindrical filaments of TDP-43 and Lam B” value [1] was “disrupted”.
